Experimental data taken from US20040180959A1, “Gabapentin analogues for fibromy algia and concomitant disorders” (priority 2002, published 2004).

Columns and labels:
[1] = test system: mice; experiment: Inverted Screen Test to assess coordination; type: in vivo; conditions: doses up to 100 mg/kg PO, immediately following the TST, 1-minute trial
Protocol: Immediately following the TST, mice were also tested in the Inverted Screen Test to assess coordination. Animals were given a 1-minute trial in which they had to climb to the top of the inverted screen or to simply hang on and not fall off.

[2] = test system: CD-1 mice; experiment: Tail Suspension Test (TST) in mice; type: in vivo; conditions: 2 hours after treatment
Protocol: The anxiolytic and antidepressant activity of (3S, 4S)-(1-Aminomethyl-3,4-dimethyl-cyclopentyl)-acetic acid (“Compound A”) was assessed using the Tail Suspension Test (TST) in mice, and in the Water-lick (Vogel) Conflict Test (WLC) in rats. The Vogel test is a recognized test procedure for assessing the potential anxiolytic utility. The TST procedure is a behavior despair paradigm used to assess potential antidepressant activity.
The method consisted of suspending mice by a piece of cellophane tape attached to the distal end of the tail for 6 minutes. Animals (CD-1 mice, weighing 22 to 27 g, from Charles River Labs) were tested. The test apparatus was the TST-2™ (ITEM-Labo, Le Kremmlin-Bicetre Cedex, France). Data were analyzed with analysis of variance (ANOVA) and Tukey's Multiple Range Test or Student's t-test.
Compound A was dissolved in water and tested orally as a solution from 0.3 to 100 mg/kg in rats and 3 to 300 mg/kg in mice. Dosages are expressed as the active moiety and were administered in a volume of 1 mL/kg for rats and 10 mL/kg for mice.
The profile of typical […] activity in the TST consists of […]. Compound A and pregabalin were tested concurrently (PO) 2 hours after treatment. Compound A was administered at doses ranging from 3 to 100 mg/kg and pregabalin was tested from 3-300 mg/kg and served as positive control (Table 1). Compound A dose dependently increases immobility with the MED observed at the 3 mg/kg dosage and maximal effects were seen following the 30 mg/kg dose.

- Screen fall-off [1]: did not cause animals to fall off
Compound: C[C@H]1CC(CN)(CC(=O)O)C[C@@H]1C [Compound A, (3S, 4S)-(1-Aminomethyl-3,4-dimethyl-cyclopentyl)-acetic acid]
- Immobility, % Percent of control ([2]; 3 mg/kg PO): 126.8 ± 7.0 %
- Power of Movement, % Percent of control ([2]; 3 mg/kg PO): 70.7 ± 10.3%
- Immobility, % Percent of control ([2]; 10 mg/kg PO): 143.7 ± 11.0 %
- Power of Movement, % Percent of control ([2]; 10 mg/kg PO): 60.8 ± 11.4%
- Immobility, % Percent of control ([2]; 30 mg/kg PO): 185.9 ± 7.0 %
- Power of Movement, % Percent of control ([2]; 30 mg/kg PO): 46.4 ± 12.3 %
- Immobility, % Percent of control ([2]; 100 mg/kg PO): 182.4 ± 5.9 %
- Power of Movement, % Percent of control ([2]; 100 mg/kg PO): 50.5 ± 18.3 %
- Dose of maximal effects on immobility ([2]; PO): 30 mg/kg
- MED for increasing immobility ([2]; PO): 3 mg/kg
- Power of movement parameter (effect in words) ([2]; PO): decreased at the 30 and 100 mg/kg dosages
